According to patent publication EP0332679B1, “ANTIVIRAL CO[…] […] AND METHOD FOR TREATING […]” (NEW YORK UNIVERSITY, priority 1987, dated 1989):
Where “and” joins values, the source holds several entries; their conditions need not be identical. Equal values may be shown once. Entries after “also recorded” stand apart in the source; their conditions may differ.

Legend:
[1] = in vivo; cited from earlier work
[2] = in vivo; cited from earlier work; remark: listed apart in the source
[3] = test system: Radiation Leukemia Virus (RadLV); assay: H-2 antigen expression in thymocytes (FACS) after intrathymic inoculation of radiation leukemia virus; type: in vivo, B10.T(6R) mice
Text: The intrathymic inoculation of murine radiation leukemia virus in susceptible strains of mice results in the malignant transformation of the thymocytes and the development of overt leukemia (as described in Meruelo, D. et al J. Exp. Med. 147: 470-487, 1978). […] Among the early events which follow the viral infection in some mouse strains is a dramatic increase in the cell surface expression of class I H-2 antigens. This increase is then followed by a reduction in the expression of these antigens after the malignant transformation and subsequent development of leukemia. The changes in H-2 antigen expression have been utilized to monitor viral infectivity and to determine the effects of Hy and Ps on the level of infectivity of this virus.
Murine radiation leukemia virus (RadLV) was inoculated intrathymically into B10.T(6R) mice as described in Meruelo et al (supra). Groups of six mice were treated 24 h later with 30 µg per mouse of compound Hy administered intraperitoneally in isotonic saline solution. The mice were sacrificed ten days later and the expression of Class I H-2 antigens determined by analysis with a fluorescence activated cell sorter (Ortho Cytofluorograph Model 50H, Ortho Diagnostic Systems, Westwood, MA) (FACS), using X-56 anti-H-2D^d mouse monospecific antibodies (as described in Meruelo, et al supra; similar antibodies are available as ATCC No. HB75, American Type Culture Collection, Rockville, MD).

[4] = test system: Friend Leukemia Virus (FV); assay: Splenomegaly after Friend Leukemia Virus infection, compound given intraperitoneally 24 h after intravenous virus; type: in vivo, BALB/c mice; conditions: for Spleen weight: individual mice
Text: Friend Leukemia virus (FV) an aggressive retrovirus induces an acute erythroleukemia in sensitive strains of mice such as BALB/c and NIH SWISS mice (as described in Friend, C. J. Exp. Med. 105: 307-324, 1957; Friend, C. et al Nat. Cancer Inst. Monogr. 22: 505-522, 1966; Friend, C. et al Proc. Natl. Acad. Sci. U.S.A. 68: 378-383, 1971). The malignant transformation is the result of the combined activities of the spleen focus forming virus (SFFV) and the ecotropic murine Friend Leukemia helper virus (F-MuLv). The acute erythroleukemia is characterized by hepatosplenomegaly (a marked increase in the size of the spleen and liver) and a severe anemia.
Friend Leukemia virus was prepared by homogenizing the enlarged spleen of a mouse previously infected with FV, 10 days after intravenous virus injection. The spleen was homogenized in phosphate buffered saline in a volume equal to 10 times the weight of the isolated spleen.
The effects of Hy and Ps on the increase in spleen size (splenomegaly) of BALB/c mice (Jackson Labs, Bar Harbor, ME) was examined. […] The animals were then sacrificed ten days later and their spleens weighed.

[5] = test system: Friend Leukemia Virus (FV); assay: Splenomegaly after simultaneous intravenous co-administration of compound with FV; type: in vivo, mice; conditions: for Spleen Weights: individual mice
Method: A different experimental design was also tested involving the simultaneous intravenous co-administration of Ps with the FV complex. In this case, the viral preparation was mixed with Ps at various concentrations and the mixture was injected into the mouse tail vein in a final volume of 0.5ml. The mice were sacrificed ten days later, the spleens weighed and the level of inhibition of splenomegaly subsequently determined.

[6] = test system: Friend Leukemia Virus (FV); assay: Liver function (serum liver-associated proteins) of FV infected mice with or without compound; type: in vivo, BALB/c mice; conditions: for CHOLEST: pooled serum of 4 mice
Text: BALB/c mice were inoculated with FV at a concentration of 2x10⁵ FFU. Each group of animals contained 4 mice, and analyses were done in pooled aliquots.
In Table 3, BU = Total Bilirubin, AP = Alkaline phosphatase, LDH = Lactate dehydrogenase, SGOT = Serum glutamyl aminotransferase, SGPT = […], and GGT = Gamma-glutamyl-transpeptidase.

[7] = FV 2x10^5 FFU, 2 injections 80 μg/mouse
[8] = FV 2x10^5 FFU, single i.p. injection 80 μg/mouse
[9] = FV 10^6 FFU, 2 injections 80 µg/mouse
[10] = FV 10^6 FFU, single i.p. injection 80 µg/mouse
[11] = IPFVIVPS: FV intraperitoneal, Ps intravenous, pooled serum
[12] = IVFVIPPS: FV intravenous, Ps intraperitoneal, pooled serum

SMILES: Cc1cc(O)c2c(=O)c3c(O)cc(O)c4c5c(O)cc(O)c6c(=O)c7c(O)cc(C)c8c1c2c(c34)c(c78)c65 [Hy, hypericin]
- effect on the human organism (in words) [1]: tonic and tranquilizing effect
- photosensitivity (in words) [2]: produce photosensitivity upon ingestion
- % inhibition (of virus-induced increase in H-2 antigen expression) ([3]; mouse, in vivo): (1) % inhibition = 100-[(Treated 30 μg) - (Base Line) / Virus Induced - Base Line] x100=82%
- % of cells stained with antibody ([3]; mouse, in vivo, ip): 76.7% and 77.2% and 96.3% and 84.8% and 54.0% and 97.8%
- % of cells stained with antibody, mean (x̄) ([3]; mouse, in vivo, ip): x̄=81.13%
- effect on RadLV-induced increase in H-2 expression (in words) ([3]; mouse, in vivo, ip): significant inhibition in the increase in H-2 expression in four of the six mice tested

SMILES: Cc1cc(O)c2c(=O)c3c(O)cc(O)c4c5c(O)cc(O)c6c(=O)c7c(O)cc(CO)c8c1c2c(c34)c(c65)c78 [Ps, pseudohypericin]
- % Inhib (splenomegaly) [4, 7]: 81.7%
- Net change from control (spleen weight) [4, 7]: Net change from control=0.1292
- Spleen weight, mean (x̄) [4, 7]: x̄=0.3138±0.1197 g
- % Inhib (splenomegaly) ([4]; FV 2x10^5 FFU, 2 injections 80 μg/mouse, listed as PS): % Inhib=81.15
- % Inhib (splenomegaly) [4, 8]: 89.6%
- Net change from control (spleen weight) [4, 8]: Net change from control=0.0714
- Spleen weight, mean (x̄) [4, 8]: x̄=0.2560±0.0723 g
- % Inhib (splenomegaly) ([4]; FV 2x10^5 FFU, single i.p. injection 80 μg/mouse, listed as PS): % Inhib=89.58
- % Inhib (splenomegaly) [4, 9]: 90.7%
- Net change from control (spleen weight) [4, 9]: Net change from control=0.0841
- Spleen weight, mean (x̄) [4, 9]: x̄=0.2687±0.0621 g
- % Inhib (splenomegaly) ([4]; FV 10^6 FFU, 2 injections 80 µg/mouse, listed as PS): % Inhib=90.70
- % Inhib (splenomegaly) [4, 10]: 93.8%
- Net change from control (spleen weight) [4, 10]: Net change from control=0.0558
- Spleen weight, mean (x̄) [4, 10]: x̄=0.2404±0.0482 g
- % Inhib (splenomegaly) ([4]; FV 10^6 FFU, single i.p. injection 80 µg/mouse, listed as PS): % Inhib=93.82
- Spleen weight [4, 7]: 0.2722 Spleen weight (g ) and 0.2438 Spleen weight (g ) and 0.4924 Spleen weight (g ) and 0.2469 Spleen weight (g )
- Spleen weight [4, 8]: 0.2208 Spleen weight (g ) and 0.1791 Spleen weight (g ) and 0.3457 Spleen weight (g ) and 0.2784 Spleen weight (g )
- Spleen weight ([4]; FV 10^6 FFU i.v., 2 daily consecutive i.p. injections of 80 µg/mouse): 0.2457 Spleen weight (g ) and 0.3400 Spleen weight (g ) and 0.2938 Spleen weight (g ) and 0.1956 Spleen weight (g )
- Spleen weight ([4]; FV 10^6 FFU i.v., single i.p. injection 80 µg/mouse 24 h later, sacrificed ten days later): 0.2831 Spleen weight (g ) and 0.2761 Spleen weight (g ) and 0.2215 Spleen weight (g ) and 0.1810 Spleen weight (g )
- % inhibition (splenomegaly) ([5]; 5mcg per mouse i.v. with FV): 75.44%
- Spleen Weights, mean (x̄) ([5]; 5mcg per mouse i.v. with FV): x̄=0.3862 ±0.0353 grams
- % inhibition (splenomegaly) ([5]; 5mcg per mouse i.v. with FV, listed as PS): = 75.44%
- % inhibition (splenomegaly) ([5]; 20 mcg per mouse i.v. with FV): 100%
- Spleen Weights, mean (x̄) ([5]; 20 mcg per mouse i.v. with FV): x̄=0.1614 ±0.0253 grams
- % inhibition (splenomegaly) ([5]; 20 mcg per mouse i.v. with FV, listed as PS): 100%
- % inhibition (splenomegaly) ([5]; 50mcg per mouse i.v. with FV): 100%
- Spleen Weights, mean (x̄) ([5]; 50mcg per mouse i.v. with FV): x̄=0.1572 ±0.0217 grams
- % inhibition (splenomegaly) ([5]; 50mcg per mouse i.v. with FV, listed as PS): 100%
- Spleen Weights ([5]; 5mcg per mouse i.v. mixed with FV, sacrificed ten days later): 0.3425 grams and 0.3766 grams and 0.4005 grams and 0.4255 grams
- Spleen Weights ([5]; 20 mcg per mouse i.v. mixed with FV): 0.1655 grams and 0.1426 grams and 0.1433 grams and 0.1966 grams
- Spleen Weights ([5]; 50mcg per mouse i.v. mixed with FV): 0.1830 grams and 0.1674 grams and 0.1422 grams and 0.1365 grams
- effect on RadLV-induced increase in H-2 expression (in words) ([3]; 30 µg per mouse i.p. 24 h after viral inoculation): No effects on H-2 expression
- mean fluorescent intensity in fluorescent units ([3]; individual mice, 30 μg/mouse i.p. 24 h after intrathymic RadLV, thymocytes ten days later): (713.3) fluorescent units; also recorded: (639) fluorescent units
- % of cells stained with antibody ([3]; individual mice, 30 μg/mouse i.p. 24 h after intrathymic RadLV, thymocytes ten days later, anti-H-2D^d antibody): 97.4% and 94.3%
- CHOLEST ([6]; IPFVIVPS: FV intraperitoneal (2x10^5 FFU), Ps intravenous): 137 mg/dL
- ALBUMIN [6, 11]: 3.2 g/dL
- AP (Alkaline phosphatase) [6, 11]: 200 IU/l
- BU (Total Bilirubin) [6, 11]: 0.3 mg/dL
- GGT (Gamma-glutamyl-transpeptidase) [6, 11]: 4 miu/ml
- LDH (Lactate dehydrogenase) [6, 11]: 2305 IU/l
- SGOT [6, 11]: 244 IU/l
- SGPT [6, 11]: 135 IU/l
- Total PROTEIN [6, 11]: 5.5 g/dL
- CHOLEST ([6]; IVFVIPPS: FV intravenous (2x10^5 FFU), Ps intraperitoneal): 109 mg/dL
- ALBUMIN [6, 12]: 3.4 g/dL
- AP (Alkaline phosphatase) [6, 12]: 226 IU/l
- BU (Total Bilirubin) [6, 12]: 0.1 mg/dL
- LDH (Lactate dehydrogenase) [6, 12]: 3303 IU/l
- SGOT [6, 12]: 213 IU/l
- SGPT [6, 12]: 99 IU/l
- Total PROTEIN [6, 12]: 5.7 g/dL
